Read-outs that look alike come from different tables or passages of the source. Each block holds one molecule with its values, some of them ahead of it.
What was measured:
[1] = system: BeWo b30 monolayer
Procedure: (§2) Polycarbonate Transwell® inserts (pore size 3.0 µm, growth area 1.12 cm^2, apical volume 0.5 ml, basolateral volume 1.5 ml; Corning®, Sigma-Aldrich, Buchs, Switzerland) were pre-coated with 50 µg/ml human placental collagen IV (Sigma-Aldrich, Buchs, Switzerland) for 1 h at 37 °C/5% CO2 (200 µl on both sides). Then the membrane was washed twice with phosphate buffered saline (PBS, pH 7.4, Sigma-Aldrich, Steinheim, Germany). Translocation experiments were done either with BeWo or HPEC monocultures or with both cell lines co-cultivated on a membrane. For the BeWo monolayer 1.5 × 10^5 cells in 500 µl EM were added apically and 1.5 ml EM basolaterally. For the HPEC monolayer the cells were seeded on the basolateral side of the membrane (Fig. 5a–d). Therefore, the reversed insert was placed in a 6-well plate (TPP, Faust AG, Schaffhausen, Switzerland), which had been filled with 1 ml sterile PBS to ensure a humid surrounding. Small rubber spaces (1.5 mm thick) were placed in each corner of the plate in order to slightly lift the lid to prevent direct contact of the lid with the membrane. This enables the adhesion of the drop to the lid, thereby avoiding medium loss as well as cell aggregation in the center. 1 × 10^5 HPECs in 200 µl EM were added to the membrane and the lid was immediately placed on the plate. After 2 h of incubation (37 °C, 5% CO2), the insert was placed into a 12-well plate with fresh EM (0.5 ml apical and 1.5 ml basolateral). For the co-culture, the steps described above for the monocultures were done, starting with the HPEC layer. The inserts were cultivated for 3 d at 37 °C/5% CO2 in EM (medium change after 48 h) under static conditions.
(§3) Translocation studies were performed with co-cultured membranes as well as separate monolayers (BeWo on the apical or HPEC on the basolateral side of the insert) cultivated for 3 d as described above. […] At each time point (0, 0.25, 2, 4, 6, 8, 24 h) samples (50 µl) were taken from the basolateral chamber and renewed with fresh medium. […] Only differences were the use of EM with phenol red and sample volumes of 200 µl (basolateral) at each time point (0, 0.25, 1, 2, 6 h). Analysis of these samples was done by high performance liquid chromatography (HPLC). These studies were conducted in static and shaken (horizontal shaking at 50 rpm) conditions to determine the potential influence of simple shaking on transfer rates.
(§4) The mass transported (ΔQn) was calculated for each time point and corrected for the mass taken before:1 ΔQn=Cn∗Vw+∑j=1n−1Vs∗Cj with the concentration measured at time tn (Cn), the volume of the well (Vw, 1.5 ml) and the sample volume (Vs). The sum of the amount removed during previous sampling is added respectively (Σ). Results were then expressed as basolateral amount of the initial dose (ID) in %. […] The permeability factor was calculated with the following two equations:2 P=ΔQ/Δt/A∗C0 3 Pe=1/(1/Pc−1/Pm) where the permeability factor (P; cm s^−1) is first calculated as the quotient of the amount transported (ΔQ; mg) at a specific time point (Δt; sec) divided by the product of the membrane surface area (cm^2) and the initial concentration of the substance (C0; mg cm^−3). Pe describes the apparent permeability factor corrected for the influence of the membrane. Therefore, the permeability value across the membrane Pm was subtracted from the permeability across the cells (Pc; monolayer or co-culture).

[2] = system: HPEC-A2 monolayer
Procedure: as §2, §3, §4

[3] = system: BeWo b30 / HPEC-A2 co-culture
Procedure: as §2, §3, §4

[4] = not told, 2 h
Procedure: as §2
(§5) Translocation studies were performed with co-cultured membranes as well as separate monolayers (BeWo on the apical or HPEC on the basolateral side of the insert) cultivated for 3 d as described above. […] At each time point (0, 0.25, 2, 4, 6, 8, 24 h) samples (50 µl) were taken from the basolateral chamber and renewed with fresh medium. […]
(§6) The mass transported (ΔQn) was calculated for each time point and corrected for the mass taken before:1 ΔQn=Cn∗Vw+∑j=1n−1Vs∗Cj with the concentration measured at time tn (Cn), the volume of the well (Vw, 1.5 ml) and the sample volume (Vs). […] Results were then expressed as basolateral amount of the initial dose (ID) in %. […] The permeability factor was calculated with the following two equations:2 P=ΔQ/Δt/A∗C0 3 Pe=1/(1/Pc−1/Pm) where the permeability factor (P; cm s^−1) is first calculated as the quotient of the amount transported (ΔQ; mg) at a specific time point (Δt; sec) divided by the product of the membrane surface area (cm^2) and the initial concentration of the substance (C0; mg cm^−3). […]

[5] = in vitro; conditions: human
Procedure: as §2, §3, §4

[6] = in vitro; conditions: not told, Permeability factor P2h
Procedure: as §2, §5, §6

[7] = system: BeWo monolayer; conditions: cited from earlier work
[8] = system: BeWo cells; conditions: cited from earlier work
[9] = Translocation across control (empty collagen-coated) insert membrane; conditions: not told, Permeability factor P2h
Procedure: as §2, §5, §6

[10] = Translocation study across BeWo/HPEC co-culture (placental barrier model); conditions: human
Procedure: as §2, §3, §4

[11] = system: BeWo b30 / HPEC-A2 co-culture; experiment: as above; conditions: after 6 h, static, 100 µM
Procedure: as §2, §3, §4

[12] = Translocation study across BeWo monolayer on collagen-coated 3 µm polycarbonate Transwell insert; conditions: human; for Papp at 2 h, 100 µM: BeWo monolayer
Procedure: as §2, §3, §4

[13] = system: BeWo b30 monolayer; experiment: as above; conditions: BeWo layer, after 6 h, static, 100 µM
Procedure: as §2, §3, §4

[14] = Translocation study across HPEC monolayer on collagen-coated 3 µm polycarbonate Transwell insert; conditions: human
Procedure: as §2, §3, §4

[15] = system: HPEC-A2 monolayer; experiment: as above; conditions: after 6 h, static, 100 µM
Procedure: as §2, §3, §4

[16] = system: BeWo b30 / HPEC-A2 co-culture; experiment: Sodium fluorescein (Na-F) exclusion assay, co-culture; type: in vitro ADME, human; conditions: day 3 of cultivation, 5 µM Na-F, 3 h incubation
Procedure: (§1) To determine barrier formation, exclusion of Na-F was determined daily for 4 d. 0.5 ml of 5 µM Na-F (Sigma-Aldrich, Buchs, Switzerland) was added to the apical chamber and 1.5 ml EM (without phenol red) to the basal chamber.

[17] = system: BeWo b30 monolayer; experiment: Sodium fluorescein (Na-F) exclusion assay, BeWo monoculture; type: in vitro ADME, human; conditions: day 3 of cultivation, 5 µM Na-F, 3 h incubation
Procedure: as §1

[18] = system: HPEC-A2 monolayer; experiment: Sodium fluorescein (Na-F) exclusion assay, HPEC monoculture; type: in vitro ADME, human; conditions: after 3 d of cultivation, 5 µM Na-F, 3 h incubation
Procedure: as §1

[19] = Apparent permeability factor Pe, 2h, shaken (50 rpm), median ± mad
[20] = Apparent permeability factor Pe, 2h, static, median ± mad
[21] = Permeability factor P2h, shaken, without subtraction of Pmembrane
[22] = Permeability factor P2h, static, without subtraction of Pmembrane

SMILES: Cc1cc(=O)n(-c2ccccc2)n1C [antipyrine]
Apparent permeability factor Pe, 2h ([1]; human, 2 h, 100 µM): 106.4 ± 8.2 × 10^−6 cm s^−1
Permeability factor P2h ([1]; human, 2 h, 100 µM): 26.5 ± 1.1
Transport, basolateral amount of the initial dose (ID) ([1]; human, 6 h, 100 µM): 74.7%
Apparent permeability factor Pe, 2h ([2]; human, 2 h, 100 µM): 76.5 ± 7.0 × 10^−6 cm s^−1
Permeability factor P2h ([2]; human, 2 h, 100 µM): 24.1 ± 1.0
Transport, basolateral amount of the initial dose (ID) ([2]; human, 6 h, 100 µM): 71.4%
Transport, basolateral amount of the initial dose (ID) ([3]; human, 6 h, 100 µM): 80.9%
Permeability factor P2h [4]: 35.3 ± 0.7
Papp at 1 h, 100 µM ([5]; Permeability P1h): 36.2 ×10⁻⁶ cm/s
Papp at 1 h, 100 µM ([5]; Permeability Pe, 1h): 79.3 ×10⁻⁶ cm/s
Papp at 2 h [6]: 50 ± 3.4 ×10⁻⁶ cm/s
Permeability Pe,1h [7]: 5.8e-05 cm/s
Viability of BeWo cells [8]: did not affect the viability

Papp at 2 h ([9]; shaken): 39.6 ± 6.5 ×10⁻⁶ cm/s
Papp at 2 h ([9]; static, median ± mad): 36.4 ± 1.1 ×10⁻⁶ cm/s
Papp at 2 h, 100 µM [10, 19]: 30.7 ± 1.2 ×10⁻⁶ cm/s
Papp at 2 h, 100 µM [10, 20]: 26.7 ± 0.2 ×10⁻⁶ cm/s
Papp at 2 h, 100 µM [10, 21]: 17.3 ± 0.8 ×10⁻⁶ cm/s
Papp at 2 h, 100 µM [10, 22]: 15.3 ± 1.1 ×10⁻⁶ cm/s
Transport, basolateral amount of the initial dose (ID) [11]: 41.5%
Papp at 2 h, 100 µM [12, 19]: 37.2 ± 11.9 ×10⁻⁶ cm/s
Papp at 2 h, 100 µM ([12]; Apparent permeability factor Pe, 2h, static, apical to basolateral, median ± mad): 39.5 ± 8 ×10⁻⁶ cm/s
Papp at 1 h, 100 µM ([12]; Permeability P1h, this study, static, compared with BeWo monolayer literature values): 19.9 ×10⁻⁶ cm/s
Papp at 2 h, 100 µM [12, 21]: 21.7 ± 0.3 ×10⁻⁶ cm/s
Papp at 2 h, 100 µM [12, 22]: 19 ± 3.5 ×10⁻⁶ cm/s
Transport, basolateral amount of the initial dose (ID) [13]: 45.9%
Papp at 2 h, 100 µM [14, 19]: 22.7 ± 0.4 ×10⁻⁶ cm/s
Papp at 2 h, 100 µM [14, 20]: 19 ± 0.1 ×10⁻⁶ cm/s
Papp at 2 h, 100 µM [14, 21]: 14.6 ± 1.2 ×10⁻⁶ cm/s
Papp at 2 h, 100 µM [14, 22]: 12.6 ± 0.6 ×10⁻⁶ cm/s
Transport, basolateral amount of the initial dose (ID) [15]: 42.9%
SMILES: COc1ccc2c(c1)c(CC(=O)O)c(C)n2C(=O)c1ccc(Cl)cc1 [indomethacin]
Permeability P1h ([7]; BeWo monoculture transfer model, static conditions, Li et al. ref 47): 2.32e-05 cm/s

SMILES: O=C([O-])c1ccccc1-c1c2ccc(=O)cc-2oc2cc([O-])ccc12.[Na+].[Na+] [Na-F, sodium fluorescein]
Na-F translocation, basolateral amount of ID [16]: 0.5 % of ID
Na-F translocation, basolateral amount of ID [17]: 0.5 % of ID
Na-F translocation, basolateral amount of ID [18]: 14.0 % of ID
Permeability factor P2h [1]: 2.5 ± 0.4 x 10-6 cm s-1
Transport, basolateral amount of the initial dose (ID) [1]: 34.5%
Transport, basolateral amount of the initial dose (ID) [2]: 77.0%
Apparent permeability factor Pe, 2h [3]: 1.1 ± 1.1 × 10^−6 cm s^−1
Permeability factor P2h [3]: 1.0 ± 1.0 x 10-6 cm s-1
Transport, basolateral amount of the initial dose (ID) [3]: 35.1%
Viability of BeWo cells ([8]; previous publications ref 47, 64): did not affect the viability
